The values below come from patent publication US8809390B2, “Compound accelerating secretion of human-derived anti-microbial peptide, method for preparing same, and composition having same as active ingredient” (Neopharm Co., Ltd., priority 2010, dated 2014).

Series [1] deals with human β-defensin-2 (hBD-2). In words: Promotion of secretion/expression of β-defensin-2 in cultured human keratinocytes (RT-PCR, real-time PCR). The class given is cell-based. To be noted: cultured human keratinocyte (HaCaT), 24 hours, with 1.7 mM calcium chloride; FIG. 1. Here is the method:
(§1) A medium containing 1% penicillin/streptomycin but not serum was used to culture human keratinocyte (HaCaT). The human keratinocyte was cultured in a 5% CO2 incubator at 37° C. The cells were seeded in each well of a 6-well plate at 3×10^5 cells/well, and then cultured for 48 hours. 1.7 mM calcium chloride and the new material synthesized from Example 1 were added thereto, and the cells were allowed to culture for 24 hours.
(§2) For assessment, at least one untreated control and at least one positive control were used together. 2.5 ng/mL of lipopolysaccharides (LPS), which is known to promote expression of hBD-2 and LL-37, was used as the positive control, and was allowed to react. After the reaction was completed, a supernatant was collected, and then the cells were washed with phosphate buffer saline (PBS) and collected by using a trypsin-EDTA solution, and stored in a tube. 1 ml of a triazole reagent was added to extract mRNA. […] The diluted RNA was analyzed at a wavelength between 260 nm and 280 nm, and quantitated. […]
(§3) 12.5 μl of PCR premix, 2 μl of primer sense (10 uM), 2 μl of primer antisense (10 uM), 1.5 μl of cDNA, and 7 μl of distilled water were inputted, and then PCR was carried out. […] The sample was migrated and then read out under UV in a dark room, and digitally photographed. Photos of the gel were analyzed by image processing software which quantifies the band intensities. […]
On the technique in general: Quantitative PCR measures a nucleic acid by following its amplification.

The next series relates to LL-37. The experiment in a line: Promotion of secretion/expression of LL-37 in cultured human keratinocytes (RT-PCR, real-time PCR). The class given is cell-based. To be noted: cultured human keratinocyte (HaCaT), 24 hours, with 1.7 mM calcium chloride; FIG. 1. The method, then: as §1, §2, §3
Series [2] relates to nude mice. The experiment in a line: Recovery of skin barrier damage (TEWL) in nude mice with acute skin barrier disruption. The class given is in vivo, mouse. The settings on record: D-Squame acute barrier damage, topical coating, TEWL at 0 h, 3 h, 6 h, 24 h, FIG. 2. Here is the method:
Skin barriers of nude mice were acutely damaged, and then effects of the new material represented in Example on recovery of acute skin barriers were assessed. D-Squame was used to induce skin barrier damage to left and right back regions of 6-8 week aged nude mice. Here, all the experimental groups were maintained to have no difference in trans epidermal water loss (TEWL) through measurement of the trans epidermal water loss (TEWL), and then vehicle (PEG:EtOH=7:3) and the new material represented in the example were coated thereon. The trans epidermal water loss (TEWL) was measured at the time of 0 h, 3 h, 6 h, and 24 h to confirm recovery of the skin barrier, and skin biopsies were conducted at the respective time, to thereby implement histological examination and other examinations.

The test system of series [3] is nude mice. The experiment in a line: Efficacy assessment on oxazolone animal model with atopic dermatitis (skin thickness). The class given is in vivo, mouse. The source says: (§4) An animal model with atopic dermatitis was constructed by coating the abdomens of 6-8 week aged nude mice with 5% oxazolone solution one time for percutaneous sensitization; after week, with 0.1% oxazolone solution every other day, six times, and 1% oxazolone solution every other day, four times. It has been reported that in the case of the animal model with atopic dermatitis using oxazolone, antimicrobial peptides were reduced in the skin (Man M-Q, Hatano Y, Lee S H, et al. Characterization of a hepten-induced, murine model with multiple features of atopic dermatitis: structural, immunologic, and biochemical changes following single versus multiple oxazolone challenges. J Invest Dermatol (2008) 128, 79-86). The skin of the animal model with atopic dermatitis constructed as above was coated with vehicle (PEG:EtOH=7:3) and Compound 1a of Example 1 diluted with the vehicle at a concentration of 0.1% once in the morning and in the afternoon for a total of four days. On the last day, thickness of the skin was measured. Corticosteroid based drug, Dexamethasone, which is an effective anti-inflammatory agent, was used as a positive control.

The test system of a further series is CRAMP. In words: Expression of antimicrobial peptide (CRAMP) in the skin of the atopic dermatitis animal model (immunohistochemistry). The class given is in vivo, mouse. The settings on record: animal model with atopic dermatitis, coated for four days; FIG. 4.
Description: as §4, with “Corticosteroid based drug, Dexamethasone, which is an effective anti-inflammatory agent, was used as a positive control.” left out
The new compound synthesized according to Example 1 was coated for four days, and then skin tissue biopsy was conducted to form a paraffin block. […] After the reaction was completed, expression of CRAMP in the corneum of the skin was measured through a microscope. […]

Regarding `CCCCCC(=O)N[C@@H](Cc1ccc(O)cc1)C(=O)OC` [Chemical Formula (Ia), (S)-Methyl 2-(hexanamido)-3-(4-hydroxyphenyl)propanoate], the melting point is 96 °C. In addition, the “secretion of β-defensin-2” value in series [1] is on record as “promotes secretion”. The “secretion of LL-37” value in the series with LL-37 is on record as “promotes secretion”. For the same molecule, the skin barrier recovery entry in the series on nude mice [2] is recorded as “significantly promoted”. Moreover, in the series on nude mice [3] (animal model with atopic dermatitis, topical application), the skin barrier function entry is “improved”. Further, in the series on nude mice [3] (oxazolone atopic dermatitis nude mice, 0.1% in PEG:EtOH=7:3, coated twice daily for four days, skin thickness, FIG. 3), the anti-inflammatory efficacy result was “improved”. Besides, in the series with CRAMP, the “expression of antimicrobial peptides in the skin” value is “increased”.

As usually defined, the melting point is the temperature of the solid-liquid transition.
